Laboratory results: patent US9480688B2, “Pheromone compositions and their use to modify behavior in different vertebrate species” (priority 2011, dated 2016)

Key:
weaning foals = experiment: Ointment test on weaning foals, behavioral observations; assay type: in vivo, horse
Method: A total of 20 foals divided into two groups (Group A, n=10; Group B, n=10) were weaned in pens of similar size and at the same time of the day (9 am), and were evaluated using a control and pheromone compositions. All horses were between 5 and 6 months of age and mixed breeds, primarily quarter horses. An ointment form of the composition comprising Androstenone was prepared in accordance with Table 7 for administering to the horses in this study.
An ointment composition containing a different pheromone, 2-methylbut-2-enal (RP, 1 mg/mL), was also prepared for administration in a comparison study. An ointment containing no pheromone was prepared and used as control (CON). In group A, 5 foals were used for the control treatment, 3 foals were used for the RP treatment, and 2 foals were used for the Androstenone treatment. In group B, 3 foals were used for the control treatment, 3 foals were used for the RP treatment, and 4 foals were used for the Androstenone treatment. As such, a total of 8 foals were used for the control treatment, 6 foals were used for the RP treatment, and 6 foals were used for the Androstenone treatment in this entire study. Both of the pheromone formulations and the control were applied to each nostril. Control treatments were administered first to prevent any cross contamination to horses during day two.
Behavioral observations were taken during the first 10 minutes (Group A and Group B) and then for four hours (Group B only) after the mares were separated from their foals. Foal behavior was recorded every minute during the first hour (or 10 minutes) and every 5 minutes for the remaining 3 hours of the study for Group B.
Behaviors were not mutually exclusive.
The number of shocks received by the electric fence (as foals tried to return to their mare) and vocalizations were recorded continuously. The total number of observations of each defined behaviors over the first 4 hours in Group B is presented in Table 9, which also provides the percentage of each behavior over the total number of recorded number of behaviors.

barking/jumping dogs = experiment: Aerosol spray test on barking/jumping dogs in a kennel; assay type: in vivo, dog; conditions: for % Effective (no barking/jumping within 1 minute): 6 dogs
Method: An aerosol spray composition comprising Androstenone solution was prepared in accordance with Example 1, but was then diluted in isopropyl alcohol to obtain a 1:1,000 dilution of the original concentration. The purpose of the dilution was to mask the odor of the Androstenone, which can be smelled by humans at high concentrations. The spray solution was placed in a metal aerosol can pressurized with propane. A noise making device was also added to the aerosol can. The propellant, when forced through small holes, caused a sound that exceeded 70 decibels.
The efficacy of an aerosol spray composition containing Androstenone was tested in a commercial research facility housing a large number of dogs. A designated person walked the aisles of the kennel with a calm dog on a leash in order to identify those dogs that met the criteria of barking/jumping. The calm dog on the leash was walked in the center aisle between kennels and also sat outside the kennels. To qualify as a test subject, a dog had to repeatedly jump and bark while the calm dot and the person were in the aisle. A total of 15 dogs were chosen as test subjects.
The dogs were separated into two treatment groups. […] The dogs in treatment group #2 were treated, when observed to be engaging in barking/jumping behavior, with a loud spray canister to which the diluted spray composition containing Androstenone had been added. The test period was for 1 minute.

younger pigs = conditions: cited from earlier work
anxious dogs = experiment: Heart rate of anxious dogs after Androstenone spray (telemetry); assay type: in vivo, dog; conditions: four anxious dogs, 10 minutes following spray with about 0.1 μg/mL Androstenone in isopropyl alcohol
Method: A study was conducted to determine whether dogs' heart rate increased following application with an aerosol spray containing Androstenone.
An aerosol spray was prepared which contained about 0.1 μg/mL of Androstenone and isopropyl alcohol using the formulation provided in Example 1.
Four dogs determined to be “anxious” were fit with telemetry jackets and transmitters in order to continually monitor heart rate. Dot heart rates were measured for 10 minutes before treatment, 10 minutes following treatment with a control spray (isopropyl alcohol only), and 10 minutes following treatment with the test spray containing Androstenone and isopropyl alcohol.

head shy horses = experiment: Aerosol spray test on head shy horses, scored 1 through 5; assay type: in vivo, horse; conditions: for Did not work / Partially worked / Worked well: % of horses
Method: The spray solution was placed in a pressurized metal aerosol can. In one group of aerosol cans, a noise making device was also added to the aerosol can. The propellant, when forced through small holes upon pressing the nozzle, caused a sound that exceeded 70 decibels. In a second group of aerosol cans, the noise making device was not added to the can, such that when the spray composition was pumped, no noise was made.
The efficacy of an aerosol spray composition containing Androstenone was tested using thirteen adult horses, all of which were enrolled in this study after being evaluated and categorized as head shy and hard to handle (i.e., observed to move their heads away from the handler when the handler attempted to touch their heads with his hand or a halter).
The thirteen horses were sorted into two treatment groups. One group (Group 1) of 10 horses received the Androstenone spray composition outlined in Table 4 and control (CON isopropyl alcohol) with noise (n=10), while the second group (Group 2) received the Androstenone spray and control without noise (n=3).
In each group, the control composition was administered to the horses first and then the Androstenone spray was administered to the horses the following day immediately before the handler attempted to touch their ears and heads. The horses' behavior was then recorded and evaluated after each administration. The horses were given a numerical score of 1 through 5.

[1] = Group B, first 4 hours after weaning
[2] = Group B, first 4 hours after weaning, ointment in each nostril
[3] = first 10 minutes post weaning (n = 20)
[4] = first 10 minutes post weaning, Group A and Group B (n = 20)
[5] = Group 1, spray with noise, n=10
[6] = Group 1, spray with noise, n=10, listed as Pheromone
[7] = Group 2, no noise, n=3, listed as Pheromone

For `C[C@]12CCC(=O)C[C@@H]1CC[C@@H]1[C@@H]2CC[C@]2(C)C=CC[C@@H]12` [Androstenone, 5-α-androst-16-en-3-one], the “reduction of head shaking compared to control ointment” value (weaning foals; 4 hour period after weaning) was 100%, the “reduction of pacing compared to control ointment” value (weaning foals; 4 hour period after weaning) was 100% and the “reduction of trotting/running compared to control ointment” value (weaning foals; 4 hour period after weaning) was 100%. The “increase of feeding behavior compared to control” value (weaning foals; 4 hour period after weaning, % of observations eating hay) was 98%, the “Percent of observations: defecation” value (weaning foals; [1]) was 0.0% and the “Percent of observations: drink” value (weaning foals; [1]) was 0.0%. The “Percent of observations: feeding” value (weaning foals; [1]) was 11.3%, the “Percent of observations: fight” value (weaning foals; [1]) was 0.0% and the “Percent of observations: head shake” value (weaning foals; [1]) was 0.0%. The “Percent of observations: interact” value (weaning foals; [1]) was 0.8%, the “Percent of observations: lying” value (weaning foals; [1]) was 0.0% and the “Percent of observations: pace” value (weaning foals; [1]) was 0.0%. The “Percent of observations: paw” value (weaning foals; [1]) was 0.0%, the “Percent of observations: shock” value (weaning foals; [1]) was 0.8% and the “Percent of observations: stand” value (weaning foals; [1]) was 58.8%. The “Percent of observations: trot” value (weaning foals; [1]) was 0%, the “Percent of observations: vocal” value (weaning foals; [1]) was 19.0% and the “Percent of observations: walk” value (weaning foals; [1]) was 9.2%. For the same molecule, the “Total observations: defecation” value (weaning foals; [2]) was 0, the “Total observations: drink” value (weaning foals; [2]) was 0 and the “Total observations: feeding” value (weaning foals; [2]) was 27. The “Total observations: fight” value (weaning foals; [2]) was 0, the “Total observations: head shake” value (weaning foals; [2]) was 0 and the “Total observations: interact” value (weaning foals; [2]) was 2. For the same molecule, the “Total observations: lying” value (weaning foals; [2]) was 0, the “Total observations: pace” value (weaning foals; [2]) was 0 and the “Total observations: paw” value (weaning foals; [2]) was 0. The “Total observations: shock” value (weaning foals; [2]) was 2, the “Total observations: stand” value (weaning foals; [2]) was 141 and the “Total observations: trot” value (weaning foals; [2]) was 0. The “Total observations: vocal” value (weaning foals; [2]) was 46, the “Total observations: walk” value (weaning foals; [2]) was 22 and the “Percent of observations: trot” value (weaning foals; Group B, first 4 hours after weaning, listed as Pheromone A) was 0.0%. For the same molecule, the “Percent of observations: defecation” value (weaning foals; [3]) was 0.0%, the “Percent of observations: drink” value (weaning foals; [3]) was 0.0% and the “Percent of observations: eat” value (weaning foals; [3]) was 0.0%. The “Percent of observations: fight” value (weaning foals; [3]) was 0.0%, the “Percent of observations: head shake” value (weaning foals; [3]) was 0.0% and the “Percent of observations: interact” value (weaning foals; [3]) was 0.0%. The “Percent of observations: lying” value (weaning foals; [3]) was 0.0%, the “Percent of observations: pace” value (weaning foals; [3]) was 0.0% and the “Percent of observations: paw” value (weaning foals; [3]) was 0.0%. For the same molecule, the “Percent of observations: shock” value (weaning foals; [3]) was 0.0%, the “Percent of observations: stand” value (weaning foals; [3]) was 81.8% and the “Percent of observations: trot” value (weaning foals; [3]) was 0.0%. For the same molecule, the “Percent of observations: vocal” value (weaning foals; [3]) was 37.1%, the “Percent of observations: walk” value (weaning foals; [3]) was 18.2% and the “Total observations: defecation” value (weaning foals; [4]) was 0. The “Total observations: drink” value (weaning foals; [4]) was 0, the “Total observations: eat” value (weaning foals; [4]) was 0 and the “Total observations: fight” value (weaning foals; [4]) was 0. The “Total observations: head shake” value (weaning foals; [4]) was 0, the “Total observations: interact” value (weaning foals; [4]) was 0 and the “Total observations: lying” value (weaning foals; [4]) was 0. The “Total observations: pace” value (weaning foals; [4]) was 0, the “Total observations: paw” value (weaning foals; [4]) was 0 and the “Total observations: shock” value (weaning foals; [4]) was 0. For the same molecule, the “Total observations: stand” value (weaning foals; [4]) was 18, the “Total observations: trot” value (weaning foals; [4]) was 0 and the “Total observations: vocal” value (weaning foals; [4]) was 13. For the same molecule, the “Total observations: walk” value (weaning foals; [4]) was 4, the “% Effective (no barking/jumping within 1 minute)” value (barking/jumping dogs; Group 2: loud spray plus Androstenone, aerosol diluted 1:1,000 in isopropyl alcohol, applied in facial/snout region) was 100% and the “% Effective (no barking/jumping within 1 minute)” value (barking/jumping dogs; Group 3: placebo first, then Androstenone spray (re-spray of dogs not responding to placebo)) was 83.5%. For the same molecule, the “% Effective (no barking/jumping within 1 minute), overall Androstenone efficacy” value (barking/jumping dogs; all dogs that received the Androstenone spray (11 of 12 responded)) was 91.7%, the “observed effect on barking/jumping” value (barking/jumping dogs; diluted Androstenone spray, dogs) was “immediate cessation of barking/jumping” and the “time barking/jumping stopped before barking resumed” value (barking/jumping dogs; the one dog that did not respond by the 60 second criterion, after Androstenone spray) was 40 s. The “effect on aggressive behavior” value (younger pigs) was “reduces aggressive behavior”, the “effect on heart rate” value (anxious dogs) was “no significant effect” and the “horses showing improvement, either fully or partially, in head shy behavior” value (head shy horses; [5]) was 80%. For the same molecule, the Did not work (head shy horses; [5]) was 20%, the Partially worked (head shy horses; [5]) was 20% and the Worked well (head shy horses; [5]) was 60%. For the same molecule, the Did not work (head shy horses; [6]) was 20%, the Partially worked (head shy horses; [6]) was 20% and the Worked well (head shy horses; [6]) was 60%. The “Avg. Score” value (head shy horses; Group 1, spray with noise, n=10, score 1 (little to no effect) to 5 (easier to handle)) was 3.9, the “horses showing improvement, either fully or partially, in head shy behavior” value (head shy horses; Group 2, no noise, n=3) was 100% and the Did not work (head shy horses; Group 2, no noise, n=3) was 0%. The Partially worked (head shy horses; Group 2, no noise, n=3) was 33%, the Worked well (head shy horses; Group 2, no noise, n=3) was 66% and the Partially worked (head shy horses; [7]) was 33%. The Worked well (head shy horses; [7]) was 67% and the “Avg. Score” value (head shy horses; Group 2, spray with no noise, n=3, score 1 to 5) was 3.9.
